Assay [1] has as its system C. elegans overexpressing human Aβ. The experiment in a line: Aβ accumulation in C. elegans (thioflavin S staining, western blot). To be noted: CL2006 worms overexpressing human Aβ, vs DMSO controls. It counts as in vivo. The method, then:
(§1) To determine the FFAR2 signal activating property of selected compounds, SK-N-SH cells were treated with 10 μM of shortlisted compounds for 30 min at 37° C. and harvested for total protein extraction. Cells were harvested after 30 min of incubation because ERK1/2 phosphorylation upon FFAR2 activation is a quick event (Jiao et al., 2002; Bhattacharjee et al., 2010). Total protein from the cells was extracted using a lysis buffer [consisting of 10 mmol/L Tris (pH 7.6), 150 mmol/L NaCl, 10 mmol/L Sodium orthovanadate, 10 mmol/L Sodium Pyrophosphate, 100 mmol/L Sodium fluoride, 1 mmol/L EDTA, 1 mmol/L EGTA, 1% Triton X-100, 0.5% NP-40 and a cocktail of protease inhibitors (Roche); Yadav et al., 2011, 2017; Ahmadi et al., 2019, 2020a]. After sonication, cell extracts were centrifuged at 8,000×g for 10 min at 4° C., and the supernatant was separated in a fresh tube. The total protein concentration of the supernatant was measured using a BCA protein assay kit. […] Band densities were also quantified using NIH ImageJ software. β-actin was used as an internal control.
Then, the worm bodies were permeabilized in 1% Triton X-100, 125 mM Tris (pH 7.4), and 5% fresh β-mercaptoethanol. […] A total of 20 worms were counted from each group.
(A western blot detects proteins with antibodies after separation by electrophoresis.)

For assay [2], the system named is SK-N-SH cells. Description: Total protein ubiquitination, western blot (P4D1). The assay is classed as cell-based, human. The method, then:
as §1

For the next assay, the system named is proteasome. The experiment in a line: Proteasome activity assay in SK-N-SH cells. The assay is classed as cell-based, human. The method, then: The CL2006 strain, SK-N-SH cells, and brain tissues were sonicated in a lysis buffer (150 mM NaCl, 50 mM HEPES, 2 mM DTT, 20 mM NaF, 5 mM EDTA, 2.5 mM sodium pyrophosphate, 1 mM sodium orthovanadate, and 1 mM α-glycerophosphoric acid) and then centrifuged at 15,000 g at 4° C. for 15 min. Total protein was assayed using BCA kit and 20 μg protein was mixed with 140 μM suc-leu-leu-val-tyr-7-amino-4-methylcou-marin (AMC) in a proteasome activity assay buffer (150 mM NaCl, 50 mM HEPES [pH 7.4], 5 mM ATP, and 5 mM EDTA), and then the fluorescence (excitation 380 nm and emission 460 nm) was measured every 10 min over 3 h using a microplate reader. The assay was performed with and without the proteasome inhibitor MG132 (10 μM).

Assay [3] concerns FFAR2 signaling. Description: cAMP-Glo assay, forskolin-induced cAMP in SK-N-SH cells. The assay is classed as cell-based, human. Particulars: 10 μM compound, 10 μM forskolin. As to the method: FFAR2 is a Gi/o signaling receptor, which reduces cytosolic cAMP (Falomir-Lockhart et al., 2019). To determine the FFAR2 signaling activating potential of selected compounds, the cAMP-Glo™ Assay was used to measure intracellular cAMP. SK-N-SH cells (1×10^3 cells per well) were plated in a white 96-well plate for 24 h and then treated with 10 μM compounds and 10 μM forskolin (a positive control) dissolved in induction buffer. The cAMP levels were detected using a Luminescence Microplate Reader.

In assay [4] the test system is SK-N-SH cells. Description: Aβ accumulation in SK-N-SH cells (western blot). The assay is classed as cell-based, human. Particulars: vs Aβ-only treated controls, FFAR2 dependent. The method, then: as §1
The test system of assay [5] is SK-N-SH cells. Description: Aβ-induced neurotoxicity, MTT viability assay. The assay is classed as cell-based, human. As to the method: To determine the impact of FFAR2 inhibition on Aβ-induced neuronal cell toxicity, the MTT viability assay was performed (Ronicke et al., 2008). SK-N-SH cells (1×10^3 cells per well) were plated in a 96-well plate containing DMEM medium supplemented with 10% FBS and 1% antibiotics and grown at 37° C. for 24 h. Then, media was removed, and cells were washed with PBS before being replenished with DMEM media containing 1% FBS and 10 μM FFAR2 inhibitor (CATPB, Tocris) and incubated at 37° C. for 2 h. Then, cells were treated with Aβ 25-32 peptide (25 μM, Sigma) and incubated for 4 h. Afterward, the media was replaced with 100 μl of fresh media, and 10 μl of MTT reagent (5 mg/ml in phosphate buffer [pH 7.2]) was added and mixed in each well before an additional 4 h incubation. Then, DMSO (50 μl) was added in each well and mixed thoroughly to dissolve formazan crystals. The absorbance was measured at 570 nm.
(Tetrazolium dyes change colour on reduction, which living cells bring about.)

In assay [6] the test system is FFAR2 signaling. The experiment in a line: Intracellular calcium assay in SK-N-SH cells. The assay is classed as cell-based, human. To be noted: 10 μM. As to the method: FFAR2 signaling activation increases intracellular calcium (Falomir-Lockhart et al., 2019). To further determine the activation potential of selected compounds for this signaling, we plated the SK-N-SH cells (1.25×10^3 cells per well) into a dark 96-well plate for 24 h. […] Also, 0.01 M EDTA (Sigma) and […] carbachol were used as negative and additional positive controls, respectively. After 15 min, the cells were treated with […] Direct™ calcium reagent along with […] probenecid and further incubated at 37° C. for 30 min. The fluorescence was measured with excitation at 494 nm and emission at 516 nm using a microplate reader.
Background: Calcium flux is commonly read through the fluorescence of an indicator in the cells.

For assay [7], the system named is SK-N-SH cells. The experiment in a line: Lysosome activity in SK-N-SH cells. The assay is classed as cell-based, human. To be noted: 10 μM, vs controls. As to the method: Bafilomycin was used as an inhibitor of cellular autophagy/lysosomal activity. The lysosomal activity was assayed using the Enz@ lysozyme assay kit (E-22013, Molecular Probes) and the fluorescence was measured in a fluorescence microplate reader using excitation and emission wavelengths of 494 nm and 518 nm, respectively (Biotek Instruments, VT, USA).

Structures are written as SMILES.

`CC12CCC(C1)C(C)(C)C2O` (centres unmarked) [Fenchol]: the Aβ accumulation result in assay [1] is recorded as “significantly reduced”. Moreover, the protein ubiquitinylation result in the assay on SK-N-SH cells [2] is given as “did not change”. Also, the proteasomal activity result in the assay on proteasome was “significantly increased”. Also, in the assay with proteasome (Fenchol plus Aβ), the “proteasome activity in cells also treated with Aβ” value is reported as “higher”. Further, in the assay on FFAR2 signaling [3], the “cAMP upon Forskolin-stimulation, ascending order” value is listed as “Fenchol<Carvamenthenol<α-Terpineol<Carene<Pentanone<Octopamine<Camphene” and the “decrease in cAMP upon Forskolin-stimulation” value is given as “highest decrease”. Further, the Aβ-accumulation result in the assay on SK-N-SH cells [4] is given as “significantly reduced”. Further, in the assay on SK-N-SH cells [5] (Fenchol together with FFAR2 inhibitor, Aβ), the “protection in cell viability with FFAR2 inhibitor” value was “no significant protection”. For the same compound, the “Aβ-induced neuronal cell death” value in the assay with SK-N-SH cells [5] (vs DMSO controls) is on record as “significantly reduced”. Further, the “increase in intracellular calcium levels” value in the assay on FFAR2 signaling [6] is on record as “highest increase”. Besides, in the assay on SK-N-SH cells [7], the lysosomal activity result was “significantly increased”.

The values are drawn from patent US12447135B2 (University of South Florida, priority 2021, dated 2025).
